Test results published in US6525245B1, “Method for identifying components involved in signal transduction pathways in higher plants” (The Board of Regents of the University of Nebraska, priority 1999, dated 2003).

What was measured:
AOX = conditions: cited from earlier work; for effect on AOX transcription / effect on branched chain amino acid biosynthesis: Aubert et al. 1997
AOX1a promoter [1] = test: Luciferase expression in excised leaves of AOX1a promoter::luciferase transgenic lines, exposure to film; type: cell-based, Arabidopsis thaliana; conditions: for luciferase response to application: lines PZB-ALN 26 and 47
Procedure: Initial screening of the F1 plants was done by spraying excised leaves with 10 uM AA (FIG. 4A). The leaves were incubated for 4 hr in the light, then sprayed with luciferin, and exposed to autoradiographic film. […] Several pZB-ALN lines were used for imaging experiments employing a Hamamatsu photon-counting, CCD camera system (model C2400-75H).

Arabidopsis plants = test: Survival of Arabidopsis plants after treatment; type: in vivo
Procedure: In order for a screen involving application of antimycin A or sulfometuron methyl to succeed, plants must survive the screening procedure. […] Plants from line pZB-ALN 8 were used to produce the dose response curve shown in FIG. 6 were transferred to fresh growth plates (without antimycin A) after 36 h of antimycin A treatment. […] These plants remained green with healthy, expanded first true leaves and healthy roots and produced a normal-looking second set of true leaves.

AOX1a promoter [2] = test: Dose-response of AOXP-driven luciferase expression in seedlings, photon-counting CCD camera; type: in vivo, Arabidopsis thaliana; conditions: line pZB-ALN 8
Procedure: Seeds from these lines were sterilized and germinated on filter discs on standard growth agar in six-well plates and then grown at 20° C. and 66 uE of continuous light for 7 days (to eliminate the possibility of circadian rhythm effects). A Hamamatsu CCD camera system was used to quantify the levels of AOXP-driven luciferase expression. […] Plants were imaged immediately following transfer to induction plates, then returned to the growth chamber under 66 uE continuous light and 20° C.

Molecule: COc1nc(C)nc(NC(=O)NS(=O)(=O)c2ccccc2Cl)n1 [chlorsulfuron]
- effect on AOX transcription (AOX): increase in AOX transcription
- effect on branched chain amino acid biosynthesis (AOX): inhibit branched chain amino acid biosynthesis

Molecule: O=C(O)CC(O)(CC(=O)O)C(=O)O [citrate]
- luciferase response to application (AOX1a promoter [1]): lower, but definite response
- AOX mRNA accumulation (AOX; increase in amount of citrate in tobacco cells): accumulate

Molecule: O=C(O)c1ccccc1O [salicylic acid]
- luciferase response to application (AOX1a promoter [1]): lower, but definite response
- AOX transcript accumulation (AOX; Sauromatum guttatum and tobacco): accumulate

Molecule: COC(=O)c1ccccc1S(=O)(=O)NC(=O)Nc1nc(C)cc(C)n1 [sulfometuron methyl]
- luciferase expression (AOX1a promoter [1]; 5 nM, 24 h following treatment, some of the lines): higher luciferase expression
- effect on AOX transcription (AOX): increase in AOX transcription
- effect on branched chain amino acid biosynthesis (AOX): inhibit branched chain amino acid biosynthesis
- survival of plants after treatment (Arabidopsis plants; wild-type Arabidopsis plants sprayed with 5 uM or 5 nM): survive treatment

Molecule: antimycin A
- luciferase expression versus untreated control leaves (AOX1a promoter [1]; 10 uM, 4 h after treatment, excised leaves, pZB-ALN and pZP-ALE lines, qualitative): higher luciferase expression
- peak induction of luciferase expression over the negative control (AOX1a promoter [2]; 1.0 mM or 100 uM): about 17 fold
- time after transfer until which peak induction level is kept (AOX1a promoter [2]; 1.0 mM or 100 uM): at least 10 h
- time of peak induction after application (AOX1a promoter [2]; 1.0 mM or 100 uM): about 6 h
- lowest concentration giving measurable induction (AOX1a promoter [2]): 0.1 µM
- effect on AOX protein and transcript (AOX; petunia cells, tobacco, Hensenula anomala): increases in AOX protein and transcript
- survival of plants after treatment (Arabidopsis plants; line pZB-ALN 8, 0.1, 1.0, 10, 100 and 1000 uM, 36 h treatment, six days after treatment): survived without any apparent developmental alterations
